≈ marks a conversion by molar mass, not a printed value.
Tests used:
[1] = test system: Salmonella Typhimurium TA 98; experiment: Ames test, in the absence of microsomial extract, strain TA 98; type: cell-based
Excerpt: (§1) Mutation Test determined according to the "Ames test"
(§2) (B.N. Ames et al. Mutation Research 31, page 347, 1975).
(§3) The compound 2-[bis-(1'-hydroxy-3'-t-butyl-4'-methoxy-phenyl-2')-methyl-quinoxaline-1,4-dioxide prepared according to Example 1 was submitted to the Ames test showing the results summarized in the following two tables: […]

[2] = test system: Salmonella Typhimurium TA 1538; experiment: Ames test, in the absence of microsomial extract, strain TA 1538; type: cell-based
Excerpt: as §1, §2, §3

[3] = test system: Salmonella Typhimurium TA 1538; experiment: Ames test, in the presence of microsomial extract, strain TA 1538; type: cell-based
Excerpt: as §1, §2, §3

[4] = test system: Salmonella Typhimurium TA 1535; experiment: Ames test, in the absence of microsomial extract, strain TA 1535; type: cell-based
Excerpt: as §1, §2, §3

[5] = test system: Salmonella Typhimurium TA 1535; experiment: Ames test, in the presence of microsomial extract, strain TA 1535; type: cell-based
Excerpt: as §1, §2, §3

[6] = test system: Salmonella Typhimurium TA 98; experiment: Ames test, in the presence of microsomial extract, strain TA 98; type: cell-based
Excerpt: as §1, §2, §3

Treponema hyodysenterae = experiment: medicated feed in pigs exposed to Treponema hyodysenterae infections (swine dysentery); type: in vivo
Excerpt: Compound of Example 1 was mixed with the swine balanced feed described on page 8 at the ratio of 200 grams/ton. A group of 30 pigs was fed with this medicated diet. An equivalent group of pigs was used as control. The two groups were stabled in pigsties where infections of Treponema hyodysenterae have been observed. No one of the animals under treatment was getting ill, while the 50% of the untreated animals in the control group was clearly showing typical symptoms of swine dysentery.

Treponema hyodysenteriae = experiment: in vitro antibacterial activity (MIC) against Treponema hyodysenteriae; type: cell-based; conditions: Brachyspira hyodysenteriae, growth medium with about 5% bovine blood and about 3% tryptose agar
Method: MIC's against Treponema hyodysenteriae were determined by spreading appropriate dilutions of the microorganism on a growth medium containing about 5% bovine blood and about 3% tryptose agar.
Among the compounds of structure I subjected to in vitro screening were the following in which R and R1 have the above meaning.

[7] = test system: Salmonella Typhimurium TA 100; experiment: Ames test, in the absence of microsomial extract, strain TA 100; type: cell-based
Excerpt: as §1, §2, §3

[8] = test system: Salmonella Typhimurium TA 100; experiment: Ames test, in the presence of microsomial extract, strain TA 100; type: cell-based
Excerpt: as §1, §2, §3

[9] = growth promotion and feed efficiency in pigs; type: in vivo; conditions: 28 days, 200 grams/ton in diet
Excerpt: The efficacy of compound of Example 1 in promoting growth and improving the feed efficiency is illustrated below. 20 healthy pigs of same age and of average same weight were divided into two groups. One group of 10 pigs served as control and was fed a basal non-supplemented diet, the other group of 10 pigs received the same basal diet, but supplemented with 200 grams/ton of compound of Example 1.

Salmonella Typhimurium = conditions: Ames test; prior art compound; cited from earlier work

With `COc1ccc(O)c(C(c2c(O)ccc(OC)c2C(C)(C)C)c2c[n+]([O-])c3ccccc3[n+]2[O-])c1C(C)(C)C` [Example 1, 2-[bis(1'-hydroxy-3'-t-butyl-4'-methoxy-phenyl-2')-methyl]-quinoxaline-1,4-dioxide] the “Number of mutating colonies/plate” value ([1]; TA 98, 10 mcg) was 25 mutating colonies/plate, the “Number of mutating colonies/plate” value ([1]; TA 98, 30 mcg) was 24 mutating colonies/plate and the “Number of mutating colonies/plate” value ([1]; TA 98, 100 mcg) was 27 mutating colonies/plate. The “Number of mutating colonies/plate” value ([1]; TA 98, 300 mcg) was 24 mutating colonies/plate, the “Number of mutating colonies/plate” value ([1]; TA 98, 600 mcg) was 27 mutating colonies/plate and the “Number of mutating colonies/plate” value ([1]; TA 98, 1000 mcg) was 27 mutating colonies/plate. For the same compound, the “Number of mutating colonies/plate” value ([2]; TA 1538, 10 mcg) was 11 mutating colonies/plate, the “Number of mutating colonies/plate” value ([2]; TA 1538, 30 mcg) was 16 mutating colonies/plate and the “Number of mutating colonies/plate” value ([2]; TA 1538, 100 mcg) was 15 mutating colonies/plate. The “Number of mutating colonies/plate” value ([2]; TA 1538, 300 mcg) was 10 mutating colonies/plate, the “Number of mutating colonies/plate” value ([2]; TA 1538, 600 mcg) was 17 mutating colonies/plate and the “Number of mutating colonies/plate” value ([2]; TA 1538, 1000 mcg) was 17 mutating colonies/plate. For the same compound, the solubility (solubility; in acetone) was “slightly soluble”, the solubility (solubility; in benzene) was “slightly soluble” and the solubility (solubility; in dimethylformamide) was “soluble”. For the same compound, the solubility (solubility; in dioxane) was “soluble”, the solubility (solubility; in methanol) was “slightly soluble” and the solubility (solubility; in tetrahydrofuran) was “soluble”. For the same compound, the solubility (solubility; in water) was “very scarcely soluble”, the “Number of mutating colonies/plate” value ([3]; TA 1538, 10 mcg) was 16 mutating colonies/plate and the “Number of mutating colonies/plate” value ([3]; TA 1538, 30 mcg) was 14 mutating colonies/plate. The “Number of mutating colonies/plate” value ([3]; TA 1538, 100 mcg) was 15 mutating colonies/plate, the “Number of mutating colonies/plate” value ([3]; TA 1538, 300 mcg) was 8 mutating colonies/plate and the “Number of mutating colonies/plate” value ([3]; TA 1538, 600 mcg) was 18 mutating colonies/plate. For the same compound, the “Number of mutating colonies/plate” value ([3]; TA 1538, 1000 mcg) was 14 mutating colonies/plate, the “Number of mutating colonies/plate” value ([4]; TA 1535, 10 mcg) was 15 mutating colonies/plate and the “Number of mutating colonies/plate” value ([4]; TA 1535, 30 mcg) was 12 mutating colonies/plate. For the same compound, the “Number of mutating colonies/plate” value ([4]; TA 1535, 100 mcg) was 9 mutating colonies/plate, the “Number of mutating colonies/plate” value ([4]; TA 1535, 300 mcg) was 13 mutating colonies/plate and the “Number of mutating colonies/plate” value ([4]; TA 1535, 600 mcg) was 25 mutating colonies/plate. The “Number of mutating colonies/plate” value ([4]; TA 1535, 1000 mcg) was 16 mutating colonies/plate, the “Number of mutating colonies/plate” value ([5]; TA 1535, 10 mcg) was 23 mutating colonies/plate and the “Number of mutating colonies/plate” value ([5]; TA 1535, 30 mcg) was 26 mutating colonies/plate. For the same compound, the “Number of mutating colonies/plate” value ([5]; TA 1535, 100 mcg) was 22 mutating colonies/plate, the “Number of mutating colonies/plate” value ([5]; TA 1535, 300 mcg) was 16 mutating colonies/plate and the “Number of mutating colonies/plate” value ([5]; TA 1535, 600 mcg) was 22 mutating colonies/plate. The “Number of mutating colonies/plate” value ([5]; TA 1535, 1000 mcg) was 20 mutating colonies/plate, the “Number of mutating colonies/plate” value ([6]; TA 98, 10 mcg) was 30 mutating colonies/plate and the “Number of mutating colonies/plate” value ([6]; TA 98, 30 mcg) was 27 mutating colonies/plate. For the same compound, the “Number of mutating colonies/plate” value ([6]; TA 98, 100 mcg) was 24 mutating colonies/plate, the “Number of mutating colonies/plate” value ([6]; TA 98, 300 mcg) was 20 mutating colonies/plate and the “Number of mutating colonies/plate” value ([6]; TA 98, 600 mcg) was 24 mutating colonies/plate. For the same compound, the “Number of mutating colonies/plate” value ([6]; TA 98, 1000 mcg) was 28 mutating colonies/plate, the “animals under treatment getting ill” value (Treponema hyodysenterae; 200 grams/ton of feed, 30 pigs, control group 50% ill) was “No one” and the “recovery of the infected animals” value (Treponema hyodysenterae; after 2 weeks of treatment with medicated feed, 200 grams/ton) was “recovered completely”. The MIC (Treponema hyodysenteriae) was 0.1 µg/mL (≈ 0.188 µM), the “Number of mutating colonies/plate” value ([7]; TA 100, 10 mcg) was 168 mutating colonies/plate and the “Number of mutating colonies/plate” value ([7]; TA 100, 30 mcg) was 165 mutating colonies/plate. For the same compound, the “Number of mutating colonies/plate” value ([7]; TA 100, 100 mcg) was 151 mutating colonies/plate, the “Number of mutating colonies/plate” value ([7]; TA 100, 300 mcg) was 162 mutating colonies/plate and the “Number of mutating colonies/plate” value ([7]; TA 100, 600 mcg) was 177 mutating colonies/plate. The “Number of mutating colonies/plate” value ([7]; TA 100, 1000 mcg) was 142 mutating colonies/plate, the “Number of mutating colonies/plate” value ([8]; TA 100, 10 mcg) was 158 mutating colonies/plate and the “Number of mutating colonies/plate” value ([8]; TA 100, 30 mcg) was 143 mutating colonies/plate. For the same compound, the “Number of mutating colonies/plate” value ([8]; TA 100, 100 mcg) was 135 mutating colonies/plate, the “Number of mutating colonies/plate” value ([8]; TA 100, 300 mcg) was 174 mutating colonies/plate and the “Number of mutating colonies/plate” value ([8]; TA 100, 600 mcg) was 175 mutating colonies/plate. The “Number of mutating colonies/plate” value ([8]; TA 100, 1000 mcg) was 125 mutating colonies/plate, the “increase in feed efficiency over the controls” value [9] was 5,5% and the “body weight increase over control (heavier on average)” value ([9]; versus control ration) was 4,6%.

`COc1ccc(O)c(C(c2c(O)ccc(OC)c2C(C)C)c2c[n+]([O-])c3ccccc3[n+]2[O-])c1C(C)C` [Example 2, 2-[bis(1'-hydroxy-3'-i-propyl-4'-methoxy-phenyl-2')-methyl]-quinoxaline-1,4-dioxide] showed an MIC (Treponema hyodysenteriae) of 0.9 µg/mL (≈ 1.78 µM).

In the case of `COC(=O)NN=Cc1c[n+]([O-])c2ccccc2[n+]1[O-]` [carbadox, 2-formyl-quinoxaline-1,4-dioxide carbomethoxyhydrazone], the mutagenic effect (Salmonella Typhimurium) is listed as “substantial mutagenic effect”.

In the case of `[N-]=[N+]=[N-]` [sodium azide, reference compound], the “Number of mutating colonies/plate” value ([3]; TA 1538, 10 mcg) was 2258 mutating colonies/plate, the “Number of mutating colonies/plate” value ([4]; TA 1535, 10 mcg) was 1006 mutating colonies/plate and the “Number of mutating colonies/plate” value ([6]; TA 98, 10 mcg) was 1803 mutating colonies/plate.

From patent US4684649A, “Quinoxaline derivatives useful for treatment and prophylaxis of swine dysentery and as animal growth promotants” (priority 1985, dated 1987)
